The source of these data is US9951064B2, “Azaindazole compounds as inhibitors of T790M containing EGFR mutants” (Genentech, Inc., priority 2013, dated 2018).

The target in experiment [1] is T1, EGFR T790M L858R (Homo sapiens, UniProt P00533, L858R/T790M).
T1 construct: purchased Life Technologies PV4879
Description: EGFR T790M L858R biochemical assay (Caliper mobility shift). The settings on record: 5 μM ATP; apparent Ki (Morrison fit) converted by Cheng-Prusoff, Km of ATP 1.3 μM. The gist of the method:
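Caliper mobility-shift read-out, electrophoretic separation of substrate from product, after a 30-minute kinase reaction at 22 °C. EDTA at 80 mM terminates each reaction.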

Experiment [2] concerns the target T2, phosphor-EGFR in H1975(L585R/T790M) mutant EGFR expressing cells (Homo sapiens, UniProt P00533, L858R/T790M).
T2 construct: host or cells: NCI-H1975
Description: H1975 pEGFR MSD cellular assay. The class given is cell-based. The settings on record: NCI-H1975 cells, serum starved, 1 hour compound incubation, pEGFR Tyr1068 MSD; read-out: HI975 pEGFR EC50. The method in brief: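 Phospho-EGFR read by MSD electrochemiluminescence: capture with anti-pEGFR antibody (overnight, 4° C), detection with SULFO-TAG anti-total EGFR (1 hour, room temperature). Before lysis, H1975 cells starved of serum overnight got compound for 1 hour at 37° C, 0.5% DMSO final. EC50 via four-parameter logistic regression of percent inhibition.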

For experiment [3], the target named is T3, EGFR del746-750 T790M (Homo sapiens, UniProt P00533, DEL746-750/T790M).
T3 construct: purchased Carna Biosciences 08-528
Briefly: EGFR del746-750 T790M biochemical assay (Caliper mobility shift). The settings on record: 5 μM ATP; apparent Ki (Morrison fit) converted by Cheng-Prusoff, Km of ATP 2.1 μM; read-out: EGFR(T790M/d746-750) Ki. The method in brief: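 Caliper mobility-shift read-out, with product electrophoretically resolved from substrate and measured. Reactions were quenched with 80 mM EDTA after 30 min at 22 °C.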

For experiment [4], the system named is H1975 (EGFR T790M/L858R) cell proliferation. Description: H1975 proliferation assay (Cell Titer-Glo). The format is cell-based. The conditions noted are these: Homo sapiens, NCI-H1975, 72 h, NCI-H1975 cells, 72 hour incubation, read-out: H1975 antiproliferative EC50. As for the experimental part:
H1975 Proliferation Assays
All cell culture reagents were purchased from Invitrogen/Gibco. Cells are cultured at 37° C. at 5% CO2 and split as recommended by ATCC.
For orientation: Cellular ATP, detected with luciferase, serves as a proxy for viable cell number.

T3 sequence (P00533 with tags, fused parts or gaps DEL746-750/T790M limits assumed): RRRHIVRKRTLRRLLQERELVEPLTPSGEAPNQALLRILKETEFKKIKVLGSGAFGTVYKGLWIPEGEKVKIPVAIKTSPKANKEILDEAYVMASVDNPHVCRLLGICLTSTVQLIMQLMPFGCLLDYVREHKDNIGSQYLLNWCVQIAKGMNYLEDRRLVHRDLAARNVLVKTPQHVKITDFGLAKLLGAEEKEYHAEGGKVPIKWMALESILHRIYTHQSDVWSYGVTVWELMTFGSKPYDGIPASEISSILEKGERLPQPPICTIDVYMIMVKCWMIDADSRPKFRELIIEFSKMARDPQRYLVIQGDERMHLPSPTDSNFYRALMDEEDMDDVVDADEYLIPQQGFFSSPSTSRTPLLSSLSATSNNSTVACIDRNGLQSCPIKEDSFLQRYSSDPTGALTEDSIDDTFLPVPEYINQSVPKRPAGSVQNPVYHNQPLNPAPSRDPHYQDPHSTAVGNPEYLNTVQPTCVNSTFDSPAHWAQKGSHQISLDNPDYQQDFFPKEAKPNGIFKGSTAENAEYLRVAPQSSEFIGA
T1 sequence (P00533 25-1210 T790M/L858R): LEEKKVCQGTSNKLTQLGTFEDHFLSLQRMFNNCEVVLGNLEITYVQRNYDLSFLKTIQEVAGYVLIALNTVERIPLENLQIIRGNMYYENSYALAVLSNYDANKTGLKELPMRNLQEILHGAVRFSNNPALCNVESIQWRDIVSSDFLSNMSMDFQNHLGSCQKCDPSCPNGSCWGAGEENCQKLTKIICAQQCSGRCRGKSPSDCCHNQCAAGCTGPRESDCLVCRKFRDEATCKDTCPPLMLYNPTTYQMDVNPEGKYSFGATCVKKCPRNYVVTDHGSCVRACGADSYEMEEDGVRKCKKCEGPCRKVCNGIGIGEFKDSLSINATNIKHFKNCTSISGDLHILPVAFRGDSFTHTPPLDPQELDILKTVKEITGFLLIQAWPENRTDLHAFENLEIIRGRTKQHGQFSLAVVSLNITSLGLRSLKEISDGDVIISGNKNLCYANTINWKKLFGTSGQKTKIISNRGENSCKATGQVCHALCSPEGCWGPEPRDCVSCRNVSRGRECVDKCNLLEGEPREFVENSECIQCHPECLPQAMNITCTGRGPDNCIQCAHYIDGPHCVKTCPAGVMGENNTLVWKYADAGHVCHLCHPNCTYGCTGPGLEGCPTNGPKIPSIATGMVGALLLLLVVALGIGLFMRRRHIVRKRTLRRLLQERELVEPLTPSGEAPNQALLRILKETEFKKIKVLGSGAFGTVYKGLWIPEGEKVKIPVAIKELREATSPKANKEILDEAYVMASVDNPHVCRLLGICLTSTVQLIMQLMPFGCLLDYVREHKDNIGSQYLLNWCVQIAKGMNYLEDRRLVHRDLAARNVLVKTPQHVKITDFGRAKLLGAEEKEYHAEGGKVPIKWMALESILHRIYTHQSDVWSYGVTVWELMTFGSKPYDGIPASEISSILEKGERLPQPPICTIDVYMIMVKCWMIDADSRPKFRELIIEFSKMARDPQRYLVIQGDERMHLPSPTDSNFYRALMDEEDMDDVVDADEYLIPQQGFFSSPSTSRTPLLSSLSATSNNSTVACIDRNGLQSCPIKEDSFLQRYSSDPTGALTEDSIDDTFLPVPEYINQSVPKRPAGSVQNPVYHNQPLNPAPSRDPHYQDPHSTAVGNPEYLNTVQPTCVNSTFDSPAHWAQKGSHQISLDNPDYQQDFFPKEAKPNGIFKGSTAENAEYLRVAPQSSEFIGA
T2 sequence (P00533 25-1210 T790M/L858R): as above

As usually defined, the EC50 is the concentration giving half of the maximal effect. With `CC(C)n1nc(N2CC(C(=O)N3CC[C@@H](CO)C3)C2)c2cnc(Nc3ccnc(-c4cnn(S(=O)(=O)C5CC5)c4)n3)cc21` [Example 167, (R)-(1-(6-(2-(1-(cyclopropylsulfonyl)-1H-pyrazol-4-yl)pyrimidin-4-ylamino)-1-isopropyl-1H-pyrazolo[4,3-c]pyridin-3-yl)azetidin-3-yl)(3-(hydroxymethyl)pyrrolidin-1-yl)methanone], the Ki is 0.7 nM in experiment [1] and 0.5 nM in experiment [3]. For the same compound, the EC50 came to 189 nM in experiment [2] and 1830 nM in experiment [4].
The matching figures for `CCNC(=O)C1CN(c2nn(C(C)C)c3cc(Nc4ccnc(-c5cnn(S(=O)(=O)C6CC6)c5)n4)ncc23)C1` [Example 162, 1-(6-(2-(1-(Cyclopropylsulfonyl)-1H-pyrazol-4-yl)pyrimidin-4-ylamino)-1-isopropyl-1H-pyrazolo[4,3-c]pyridin-3-yl)-N-ethylazetidine-3-carboxamide]: 1 nM, 0.8 nM, 56.6 nM and 484 nM.
Consider `CNC(=O)C1CN(c2nn(C(C)C)c3cc(Nc4ccnc(-c5cnn(S(=O)(=O)C6CC6)c5)n4)ncc23)C1` [Example 161, 1-(6-(2-(1-(Cyclopropylsulfonyl)-1H-pyrazol-4-yl)pyrimidin-4-ylamino)-1-isopropyl-1H-pyrazolo[4,3-c]pyridin-3-yl)-N-methylazetidine-3-carboxamide], for which the Ki in experiment [1] stood at 0.7 nM; in experiment [3], 0.6 nM. The EC50 in experiment [2] is 54.3 nM; in experiment [4], 650 nM.
Take `CC(C)n1nc(N2CC(N3CCOCC3)C2)c2cnc(Nc3ccnc(-c4cnn(S(=O)(=O)C5CC5)c4)n3)cc21` [Example 117, N-(2-(1-(Cyclopropylsulfonyl)-1H-pyrazol-4-yl)pyrimidin-4-yl)-1-isopropyl-3-(3-morpholinoazetidin-1-yl)-1H-pyrazolo[4,3-c]pyridin-6-amine]: the Ki in experiment [1] was found to be 1.3 nM; in experiment [3], 1.1 nM. Further, the EC50 was found to be 54.9 nM in experiment [2] and 432 nM in experiment [4].
Turning to `CC(n1nc(N2CC[C@@H](O)C2)c2cnc(Nc3ccnc(N4CCC(C)(O)CC4)n3)cc21)C(F)(F)F` (stereo partly drawn) [Example 143, 1-(4-(3-((R)-3-Hydroxypyrrolidin-1-yl)-1-(1,1,1-trifluoropropan-2-yl)-1H-pyrazolo[4,3-c]pyridin-6-ylamino)pyrimidin-2-yl)-4-methylpiperidin-4-ol], the Ki is 2.9 nM in experiment [1] and 11.3 nM in experiment [3]. In addition, the EC50 was 219 nM in experiment [2] and 901 nM in experiment [4].
Turning to `CC[C@@H](C)n1nc(N2CC3(COC3)C2)c2cnc(Nc3ccnc(OCC(C)(C)S(C)(=O)=O)n3)cc21` [Example 96, [1-((R)-sec-Butyl)-3-(2-oxa-6-azaspiro[3.3]hept-6-yl)-1H-pyrazolo[4,3-c]pyridin-6-yl]-[2-(2-methanesulfonyl-2-methylpropoxy)pyrimidin-4-yl]amine], the Ki was 4.6 nM in experiment [1] and 17.2 nM in experiment [3]. For the same compound, the 50% effective concentration (EC50) in experiment [2] turned out to be 387 nM; in experiment [4] it was 1240 nM.
The matching figures for `CC(C#N)Nc1nn(C(C)C)c2cc(Nc3ccnc(N4CC[C@H](O)[C@H](F)C4)n3)ncc12` (relative stereo) [Example 179, 2-(6-(2-(cis-3-Fluoro-4-hydroxypiperidin-1-yl)pyrimidin-4-ylamino)-1-isopropyl-1H-pyrazolo[4,3-c]pyridin-3-ylamino)propanenitrile]: 5.6 nM, 15.1 nM, 746 nM and 1480 nM.
For `CC[C@H](C)n1nc(N2CC[C@@H](O)C2)c2cnc(Nc3ccnc(N4CC[C@](C)(O)[C@H](F)C4)n3)cc21` (relative stereo) [Example 69, (3R*,4S*)-1-{4-[1-((S)-sec-Butyl)-3-((R)-3-hydroxypyrrolidin-1-yl)-1H-pyrazolo[4,3-c]pyridin-6-ylamino]pyrimidin-2-yl}-3-fluoro-4-methylpiperidin-4-ol], the Ki in experiment [1] came to 1.7 nM; in experiment [3], 2.9 nM. Moreover, the values for the 50% effective concentration (EC50) in experiment [2] and in experiment [4] were 67.9 nM and 521 nM, respectively.
As for `CC[C@H](C)n1nc(N2CC3(COC3)C2)c2cnc(Nc3ccnc(N4CC[C@@](C)(O)[C@@H](F)C4)n3)cc21` (single isomer, unassigned) [Example 66, (3R*,4S*)-1-{4-[1-((S)-sec-Butyl)-3-(2-oxa-6-azaspiro[3.3]hept-6-yl)-1H-pyrazolo[4,3-c]pyridin-6-ylamino]pyrimidin-2-yl}-3-fluoro-4-methylpiperidin-4-ol], the Ki was 2.1 nM in experiment [1] and 4.6 nM in experiment [3]. Further, the EC50 in experiment [2] turned out to be 63.8 nM; in experiment [4], 631 nM.
`CCC(C)n1nc(N2CCCC2=O)c2cnc(Nc3ccnc(N4CC[C@@H](O)[C@@H](F)C4)n3)cc21` (stereo partly drawn) [Example 200, 1-(1-(sec-Butyl)-6-((2-((3S,4R)-3-fluoro-4-hydroxypiperidin-1-yl)pyrimidin-4-yl)amino)-1H-pyrazolo[4,3-c]pyridin-3-yl)pyrrolidin-2-one]: the Ki in experiment [1] was 1.2 nM; in experiment [3], 2.6 nM. In addition, the figures for the EC50 in experiment [2] and in experiment [4] were 75.4 nM and 300 nM, respectively.
`CCC(C)n1nc(N2CC[C@H](C(N)=O)C2)c2cnc(Nc3ccnc(N4CCC(C)(O)CC4)n3)cc21` (stereo partly drawn) [Example 144, (3S)-1-(1-sec-Butyl-6-(2-(4-hydroxy-4-methylpiperidin-1-yl)pyrimidin-4-ylamino)-1H-pyrazolo[4,3-c]pyridin-3-yl)pyrrolidine-3-carboxamide]: the Ki was 1.8 nM in experiment [1] and 2.1 nM in experiment [3]. Further, the EC50 amounted to 941 nM in experiment [2] and 2200 nM in experiment [4].
In the case of `CC(C)n1nc(NC2COC2)c2cnc(Nc3ccnc(-c4cnn(S(=O)(=O)C5CC5)c4)n3)cc21` [Example 35, N^6-(2-(1-(cyclopropylsulfonyl)-1H-pyrazol-4-yl)pyrimidin-4-yl)-1-isopropyl-N^3-(oxetan-3-yl)-1H-pyrazolo[4,3-c]pyridine-3,6-diamine], the figures for the Ki in experiment [1] and in experiment [3] were 0.7 nM and 0.5 nM, respectively. The EC50 in experiment [2] stood at 33.5 nM; in experiment [4], 167 nM.
Take `CC(C)n1nc(N2CC3(CC(O)C3)C2)c2cnc(Nc3ccnc(N4CC[C@H](O)[C@H](F)C4)n3)cc21` (racemic) [Example 175, (±)-2-(6-((2-((cis)-3-Fluoro-4-hydroxypiperidin-1-yl)pyrimidin-4-yl)amino)-1-isopropyl-1H-pyrazolo[4,3-c]pyridin-3-yl)-2-azaspiro[3.3]heptan-6-ol]: the Ki in experiment [1] stood at 1.4 nM; in experiment [3] it was 2.6 nM. In addition, the EC50 in experiment [2] came out at 97.8 nM; in experiment [4], 766 nM.
As for `CC(C)n1nc(N2CC(C(C)(C)O)C2)c2cnc(Nc3ccnc(-c4cnn(S(=O)(=O)C5CC5)c4)n3)cc21` [Example 149, 2-(1-(6-(2-(1-(Cyclopropylsulfonyl)-1H-pyrazol-4-yl)pyrimidin-4-ylamino)-1-isopropyl-1H-pyrazolo[4,3-c]pyridin-3-yl)azetidin-3-yl)propan-2-ol], the Ki was found to be 2.1 nM in experiment [1] and 1.2 nM in experiment [3]. For the same compound, the results for the EC50 in experiment [2] and in experiment [4] were 51.9 nM and 423 nM, respectively.
The matching figures for `CC(C)n1nc(N2CC(C#N)C2)c2cnc(Nc3ccnc(-c4cnn(S(=O)(=O)C5CC5)c4)n3)cc21` [Example 155, 1-(6-(2-(1-(Cyclopropylsulfonyl)-1H-pyrazol-4-yl)pyrimidin-4-ylamino)-1-isopropyl-1H-pyrazolo[4,3-c]pyridin-3-yl)azetidine-3-carbonitrile]: 1 nM, 0.9 nM, 28.9 nM and 144 nM.
As for `CC(C)n1nc(NC2CCS(=O)(=O)C2)c2cnc(Nc3ccnc(-c4cnn(S(=O)(=O)C5CC5)c4)n3)cc21` (centres unmarked) [Example 107, 3-((6-((2-(1-(Cyclopropylsulfonyl)-1H-pyrazol-4-yl)pyrimidin-4-yl)amino)-1-isopropyl-1H-pyrazolo[4,3-c]pyridin-3-yl)amino)tetrahydrothiophene 1,1-dioxide], the Ki in experiment [1] amounted to 2 nM; in experiment [3] it was 1.5 nM. In addition, the results for the EC50 in experiment [2] and in experiment [4] were 386 nM and 1640 nM, respectively.
The matching figures for `CC(C)n1nc(NCC(F)(F)F)c2cnc(Nc3ccnc(-c4cnn(S(=O)(=O)C5CC5)c4)n3)cc21` [Example 181, N^6-(2-(1-(cyclopropylsulfonyl)-1H-pyrazol-4-yl)pyrimidin-4-yl)-1-isopropyl-N^3-(2,2,2-trifluoroethyl)-1H-pyrazolo[4,3-c]pyridine-3,6-diamine]: 8.2 nM, 10.8 nM, 3260 nM and greater than 10000 nM.
